Test results as given in patent US11396517B1, “Exo-aza spiro inhibitors of menin-MLL interaction” (Janssen Pharmaceutica NV, priority 2017, dated 2022).
Where two headings read alike, the source gives them in different places.

Assays:
[1] = target: T1, menin (Homo sapiens, UniProt O00255, T541A); experiment: Menin/MLL homogenous time-resolved fluorescence (HTRF) assay; format: binding
T1 construct: Menin (a.a. 1-610-6×his tag)
T1 sequence (O00255 with tags, fused parts or gaps T541A): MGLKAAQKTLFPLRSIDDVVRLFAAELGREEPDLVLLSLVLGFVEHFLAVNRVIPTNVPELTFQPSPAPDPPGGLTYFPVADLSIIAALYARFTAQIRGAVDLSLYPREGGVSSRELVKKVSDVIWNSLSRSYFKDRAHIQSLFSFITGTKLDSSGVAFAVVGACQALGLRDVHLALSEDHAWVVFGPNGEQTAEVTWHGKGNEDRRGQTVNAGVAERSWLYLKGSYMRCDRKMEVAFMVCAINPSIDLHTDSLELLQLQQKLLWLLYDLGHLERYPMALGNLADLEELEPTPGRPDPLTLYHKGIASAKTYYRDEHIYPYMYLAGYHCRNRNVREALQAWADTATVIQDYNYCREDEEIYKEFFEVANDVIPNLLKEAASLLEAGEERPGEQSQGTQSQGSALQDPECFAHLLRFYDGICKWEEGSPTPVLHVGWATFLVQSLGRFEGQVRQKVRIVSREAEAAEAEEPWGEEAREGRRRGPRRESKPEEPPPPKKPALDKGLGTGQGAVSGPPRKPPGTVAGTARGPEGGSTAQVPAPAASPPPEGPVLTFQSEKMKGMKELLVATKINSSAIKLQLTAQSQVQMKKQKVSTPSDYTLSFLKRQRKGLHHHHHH
Procedure, shortened: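 Terbium-labeled menin (aa 1-610, His-tagged; […]) preincubated 5 min with compound, then 75 nM FITC-MBM1 peptide for 15 min, ambient, Tris pH 7.5, 0.5% DMSO. HTRF 520/490 ratio; 11-point 3-fold titration; IC50 from % inhibition fit.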

[2] = system: MV-4-11; experiment: Proliferation assay A (spheroid assay) MV-4-11; format: cell-based, human; settings: MV-4-11 cells, 8 d, AUC of confluence against time, absolute IC50, read-out: (3a) Spheroid assay MV-4-11 (IC50(μM)) Assay A
Description: 3a) Proliferation Assay A
The anti-proliferative effect of menin/MLL protein/protein interaction inhibitor test compounds was assessed in human leukemia cell lines. The cell lines MV-4-11 and MOLM14 harbor MILL translocations and express the MILL fusion proteins MLL-AF4 and MLL-AF9, respectively, as well as the wildtype protein from the second allele. […] K562 was used as a control cell line containing two MLL wildtype alleles in order to exclude compounds that display general cytotoxic effects.
MV-4-11 and MOLM14 were cultured in RPMI-1640 (Sigma Aldrich) supplemented with 10% fetal bovine serum (HyClone), 2 mM L-glutamine (Sigma Aldrich) and 50 μg/ml gentamycin (Gibco). K562 were propagated in RPMI-1640 (Sigma Aldrich) supplemented with 20% fetal bovine serum (HyClone), 2 mM L-glutamine (Sigma Aldrich) and 50 μg/ml gentamycin (Gibco).
In order to assess the anti-proliferative effects, 1,500 MV-4-11, 300 MOLM14 or 750 K562 cells were seeded in 200 μl media per well in 96-well round bottom, ultra-low attachment plates (Costar, catalogue number 7007). Cell seeding numbers were chosen based on growth curves to ensure linear growth throughout the experiment. Test compounds were added at different concentrations and the DMSO content was normalized to 0.3%. Cells were incubated for 8 d at 37° C. and 5% CO2. Spheroid like growth was monitored in real-time by live-cell imaging (IncuCyteZOOM, Essenbio, 4× objective) acquiring one image every four hours for 8 d. Confluence (%) as a measure of spheroid size was determined using an integrated analysis tool.
In order to determine the cumulative effect of the test compounds over time, the area under the curve (AUC) in a plot of confluence against time was calculated. Confluence at the beginning of the experiment (t=0) was used as baseline for the AUC calculation.
Absolute IC50 values were calculated according to the following procedure: % Control=(AUC sample/AUC control)*100
AUC control mean AUC of control values (cells without compound/DMSO as vehicle control)
A non-linear curve fit was applied using the least squares (ordinary) fit method to the plot of % control versus compound concentration. Based on this, the absolute IC50 value (half maximal inhibitory concentration of the test compound causing an anti-proliferative effect of 50% relative to the vehicle control) was calculated.

[3] = system: MOLM14; experiment: Proliferation assay B (spheroid assay) MOLM14; format: cell-based, human; settings: MOLM14 cells, confluence at day 8, absolute IC50, read-out: (3b) Spheroid assay MOLM14 (IC50(μM)) Assay B
Procedure, shortened: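 Leukemia cells grown as spheroids in ultra-low-attachment round-bottom wells with compound at 0.3% DMSO for 8 d at 37 °C. Confluence imaged at day 8 as spheroid size, normalized between DMSO and 1 μM staurosporine controls; absolute IC50 from sigmoidal fit with bounds fixed at 0 and 100%.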

[4] = location 2, read-out: (2) location 2 Menin HTRF assay (IC50 (nM))
[5] = location 1, read-out: (2) location 1 Menin HTRF assay (IC50 (nM))

Row | SMILES | IC50 [1, 4] [nM] | IC50 ([2]; Homo sapiens, MV4-11, 192 h) [µM] | further results
1 | O=S(=O)(NC1CC2(CCN(c3ncnc4sc(CC(F)(F)F)cc34)C2)C1)c1ccccc1 (mixture of isomers) [Compound 22] | 450 | 3.55 | 
2 | FC(F)(F)Cc1cc2c(N3CCC4(CC(Nc5ccccc5)C4)C3)ncnc2s1 (mixture of isomers) [Compound 35] | 48.6 | 4.9 | 
3 | CN(C)CC1CC2(CCN(c3ncnc4sc(CC(F)(F)F)cc34)C2)C1 (mixture of isomers) [Compound 196] | 133 | 3.91 | 
4 | Nc1nc(N2CCC3(CC(NCc4ccccc4)C3)C2)c2cc(CC(F)(F)F)sc2n1 (mixture of isomers) [Compound 263] | 47.3 | 1.23 | 
5 | CNS(=O)(=O)c1ccc(NC2CC3(CCN(c4ncnc5sc(CC(F)(F)F)cc45)C3)C2)cc1 (mixture of isomers) [Compound 316] | 8.8 | 1.26 | 
6 | FC(F)(F)Cc1cc2c(N3CCC4(CC(Nc5ccc(-c6cn[nH]c6)cc5)C4)C3)ncnc2s1 (mixture of isomers) [Compound 326] | 20.1 | 0.91 | 
7 | CC(=O)Nc1ccc(NC2CC3(CCN(c4ncnc5sc(CC(F)(F)F)cc45)C3)C2)cc1 (mixture of isomers) [Compound 330] | 19.6 | 1.26 | 
8 | N#CCc1ccc(NC2CC3(CCN(c4nc(N)nc5sc(CC(F)(F)F)cc45)C3)C2)cc1 (mixture of isomers) [Compound 377] | 7.5 | 1.12 | 
9 | CNc1nc(N2CCC3(CC(Nc4ccc5[nH]c(=O)[nH]c5c4)C3)C2)c2cc(CC(F)(F)F)sc2n1 (mixture of isomers) [Compound 393] | 68.3 | 2.6 | 
10 | CNc1nc(N2CCC3(CC(Nc4ccc5oc(=O)[nH]c5c4)C3)C2)c2cc(CC(F)(F)F)sc2n1 (mixture of isomers) [Compound 396] | 17.8 | 1.8 | 
11 | CNS(=O)(=O)c1ccc(NC2CCC3(C2)CN(c2ncnc4sc(CC(F)(F)F)cc24)C3)cc1 (racemic) [Compound 279] | 82.9 | > 3.75 | 
12 | FC(F)(F)Cc1cc2c(N3CCC4(CCC(NCc5ccccc5)CC4)C3)ncnc2s1 (single isomer, unassigned) [Compound 2] | 84.5 | 1.64 | IC50 [1, 5]: 91.2 nM
13 | FC(F)(F)Cc1cc2c(N3CC[C@]4(CC[C@@H](NCc5ccccc5)C4)C3)ncnc2s1 (single isomer, unassigned) [Compound 5] | 63.8 |  | IC50 [1, 5]: 304 nM; IC50 [2]: 1.69 µM
14 | N#CCc1ccc(NC2CC3(CCN(c4ncnc5sc(CC(F)(F)F)cc45)C3)C2)c(Cl)c1 (single isomer, unassigned) [Compound 208] | 37.7 | 3.16 | 
15 | N#CCc1ccc(NC2CC3(CCN(c4ncnc5sc(CC(F)(F)F)cc45)C3)C2)cc1Cl (single isomer, unassigned) [Compound 211] | 18.2 | 2.13 | 
16 | CNc1nc(N2CCC3(CC(Nc4ccccc4)C3)C2)c2cc(CC(F)(F)F)sc2n1 (single isomer, unassigned) [Compound 269] | 78.6 | > 3.75 | 
17 | CNS(=O)(=O)c1ccc(N[C@H]2CCC3(C2)CN(c2ncnc4sc(CC(F)(F)F)cc24)C3)cc1 (single isomer, unassigned) [Compound 291] | 51.9 | > 3.75 | 
18 | O=C1Cc2ccc(N[C@@H]3CCC4(C3)CN(c3ncnc5sc(CC(F)(F)F)cc35)C4)cc2N1 (single isomer, unassigned) [Compound 293] | 11 | 2.77 | 

Row | SMILES | IC50 [1, 4] [nM] | IC50 ([2]; Homo sapiens, MV4-11, 192 h) [µM] | further results
19 | O=c1[nH]c2ccc(N[C@@H]3CCC4(C3)CN(c3ncnc5sc(CC(F)(F)F)cc35)C4)cc2[nH]1 (single isomer, unassigned) [Compound 299] | 94.8 | > 3.75 | 
20 | O=c1[nH]c2ccc(NC3CC4(CCN(c5ncnc6sc(CC(F)(F)F)cc56)C4)C3)cc2[nH]1 (single isomer, unassigned) [Compound 320] | 41.6 | 3.71 | 
21 | O=c1[nH]c2ccc(NC3CC4(CCN(c5ncnc6sc(CC(F)(F)F)cc56)C4)C3)cc2[nH]1 (single isomer, unassigned) [Compound 321] | 915 |  | IC50 [2]: > 3.75 µM
22 | O=c1[nH]c2ccc(NC3CC4(CCN(c5ncnc6sc(CC(F)(F)F)cc56)C4)C3)cc2o1 (single isomer, unassigned) [Compound 323] | 26.4 | 3.66 | 
23 | N#CCc1ccc(NC2CC3(CCN(c4nc(N)nc5sc(CC(F)(F)F)cc45)C3)C2)cc1 (single isomer, unassigned) [Compound 378] | 42.9 | > 3.75 | 
24 | Nc1nc(N2CCC3(CC(Nc4ccc5[nH]c(=O)oc5c4)C3)C2)c2cc(CC(F)(F)F)sc2n1 (single isomer, unassigned) [Compound 385] | 27.2 |  | IC50 [2]: > 3.75 µM
25 | FC(F)(F)Cc1cc2c(N3CC4(CCC(Nc5ccccc5)C4)C3)ncnc2s1 (stereo not drawn) [Compound 7] | 658 | 13.5 | 
26 | CS(=O)(=O)Nc1ccc(C(=O)NC2CC3(CCN(c4ncnc5sc(CC(F)(F)F)cc45)C3)C2)cc1 (stereo not drawn) [Compound 27] | 585 | 11.9 | 
27 | FC(F)(F)Cc1cc2c(N3CCC4(CC(CNc5ccccc5)C4)C3)ncnc2s1 (stereo not drawn) [Compound 38] | 447 | 5.21 | 
28 | CN(CC1CC2(CCN(c3ncnc4sc(CC(F)(F)F)cc34)C2)C1)c1ccccc1 (stereo not drawn) [Compound 41] | 339 | 10 | 
29 | Cn1c(=O)[nH]c2cc(NC3CC4(CCN(c5ncnc6sc(CC(F)(F)F)cc56)C4)C3)ccc21 (stereo not drawn) [Compound 89] | 27.8 | 2.73 | 
30 | FC(F)(F)Cc1cc2c(N3CCC4(CC(Nc5ccc(-c6cc[nH]n6)cc5)C4)C3)ncnc2s1 (stereo not drawn) [Compound 92] | 5.3 | 0.48 | 
31 | CS(=O)(=O)N[C@H]1CC[C@@H](NC2CC3(CCN(c4ncnc5sc(CC(F)(F)F)cc45)C3)C2)CC1 (stereo partly drawn) [Compound 272] | 18 |  | IC50 [3]: 2.56 µM
32 | CS(=O)(=O)N1CC(CC(C#N)c2ccc(NC3CC4(CCN(c5ncnc6sc(CC(F)(F)F)cc56)C4)C3)cc2)C1 (stereo not drawn) [Compound 339] | 5.1 |  | IC50 ([3]; Homo sapiens, MOLM-14, 192 h): 2.41 µM
33 | CS(=O)(=O)N1CCN(CC(O)c2ccc(NC3CC4(CCN(c5ncnc6sc(CC(F)(F)F)cc56)C4)C3)cc2)CC1 (stereo not drawn) [Compound 354] | 43.7 |  | IC50 ([3]; Homo sapiens, MOLM-14, 192 h): > 3.75 µM
34 | CS(=O)(=O)N1CCC(C(N)=O)(c2ccc(NC3CC4(CCN(c5ncnc6sc(CC(F)(F)F)cc56)C4)C3)cc2)CC1 (stereo not drawn) [Compound 376] | 30.6 |  | IC50 ([3]; Homo sapiens, MOLM-14, 192 h): > 3.75 µM
35 | O=C(c1ccc(NC2CC3(C2)CN(c2ncnc4sc(CC(F)(F)F)cc24)C3)cc1)N1CCOCC1 [Compound 423] | 135 |  | IC50 ([3]; Homo sapiens, MOLM-14, 192 h): > 3.75 µM
